# Laboratory results as given in EP2481744A1, “Aromatic bis-phosphoramidate additives as flame retardants for polymers” (EMPA Eidgenössische Materialprüfungs- und Forschungsanstalt, priority 2011, dated 2012).
# Read-outs that look alike come from different tables or passages of the source.
# Columns and labels:
# [1] = deionized water, 16 h
# [2] = Solubility in deionized water (shaking flask, phosphorus content by ICP-OES); conditions: 0.5 gm in 50 ml deionized water, 21 °C, 16 hrs
Structure (SMILES),Solubility [1] [µg/mL],Solubility [2] [µg/mL]
"CCOP(=O)(Nc1ccc(NP(=O)(OCC)OCC)cc1)OCC [p-PAPTEE, Phosphoramidic acid, 1,4-phenylenebis-, tetraethyl ester]",47,
"CC(C)OP(=O)(Nc1ccc(NP(=O)(OC(C)C)OC(C)C)cc1)OC(C)C [p-PAPTiPE, Phosphoramidic acid, 1,4-phenylenebis-, tetra isopropyl ester]",,56
